What follows are compounds tested against Polθ theta (1-899) (hPolQ) (Homo sapiens (Human), UniProt O75417) (assay: Biological Assay 1: Polθ ATPase activity, NADH oxidation-coupled enzymatic assay (10 nM enzyme, 30 min)). Conditions: Polθ (1-899) 10 nM, 100 μM ATP, 300 nM dT50 ssDNA; Examples 1 to 268; read-out: ATPase NADH coupling:Standard Screening:hPolQ IC50.
Assay type: biochemical
How it was run: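 ATP turnover was coupled to NADH oxidation and followed at 340 nm every minute for 30 min. Enzyme (residues 1-899, 10 nM) sat with compound for 15 min at room temperature before an equal-volume addition of 100 μM ATP plus 300 nM dT50 ssDNA. Progress-curve slopes from 10-point dilutions were fitted by a four-parameter model.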

Polθ theta (1-899) (hPolQ), sequence (O75417 1-899): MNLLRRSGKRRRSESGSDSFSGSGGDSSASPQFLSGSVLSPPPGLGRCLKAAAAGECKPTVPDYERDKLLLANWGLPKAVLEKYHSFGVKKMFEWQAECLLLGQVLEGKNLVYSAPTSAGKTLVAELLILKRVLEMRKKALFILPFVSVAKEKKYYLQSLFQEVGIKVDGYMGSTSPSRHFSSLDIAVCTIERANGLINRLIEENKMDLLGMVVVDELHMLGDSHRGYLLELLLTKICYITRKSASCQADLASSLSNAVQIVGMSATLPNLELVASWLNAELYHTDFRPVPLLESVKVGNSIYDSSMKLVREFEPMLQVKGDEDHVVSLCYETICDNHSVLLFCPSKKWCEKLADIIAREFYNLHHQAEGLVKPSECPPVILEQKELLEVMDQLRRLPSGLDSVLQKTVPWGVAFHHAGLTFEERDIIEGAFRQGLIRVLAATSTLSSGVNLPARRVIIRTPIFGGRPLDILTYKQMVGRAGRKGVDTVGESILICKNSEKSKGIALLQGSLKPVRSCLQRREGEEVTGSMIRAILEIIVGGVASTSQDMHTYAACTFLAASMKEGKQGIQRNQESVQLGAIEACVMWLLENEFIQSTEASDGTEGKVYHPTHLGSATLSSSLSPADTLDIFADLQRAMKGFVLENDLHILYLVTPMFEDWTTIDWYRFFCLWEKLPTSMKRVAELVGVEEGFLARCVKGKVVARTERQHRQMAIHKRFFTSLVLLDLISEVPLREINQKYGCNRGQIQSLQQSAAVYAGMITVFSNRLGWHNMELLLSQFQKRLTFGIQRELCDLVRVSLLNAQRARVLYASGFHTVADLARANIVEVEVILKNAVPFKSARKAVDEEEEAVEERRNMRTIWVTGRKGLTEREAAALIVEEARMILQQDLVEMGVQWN

Row | IC50 | SMILES
1 | ≤ 200 nM | COc1ccc(COc2nnc(NC(=O)c3cnc(C)cc3-c3ccccc3OC(F)F)s2)nc1 [Example 53, 4-(2-(difluoromethoxy)phenyl)-N-(5-((5-methoxypyridin-2-yl)methoxy)-1,3,4-thiadiazol-2-yl)-6-methylnicotinamide]
2 | ≤ 200 nM | COc1ccc(Cl)cc1-c1cc(C)ncc1C(=O)Nc1nnc(OCc2ccc([S@@](C)(=N)=O)cn2)s1 [Example 148, (S)-4-(5-chloro-2-methoxyphenyl)-6-methyl-N-(5-((5-(S-methylsulfonimidoyl)pyridin-2-yl)methoxy)-1,3,4-thiadiazol-2-yl)nicotinamide]
3 | ≤ 200 nM | COc1cnc(Cl)cc1-c1cc(C)ncc1C(=O)Nc1nnc(OCC23CC(O)(C2)C3)s1 [Example 99, 2′-chloro-N-(5-((3-hydroxybicyclo(1.1.1)pentan-1-yl)methoxy)-1,3,4-thiadiazol-2-yl)-5′-methoxy-6-methyl-(4,4′-bipyridine)-3-carboxamide]
4 | 200 to 500 nM | COc1ccccc1-c1cc(C)ncc1C(=O)Nc1nnc(OCc2ncccc2CO)s1 [Example 62, N-(5-((3-(hydroxymethyl)pyridin-2-yl)methoxy)-1,3,4-thiadiazol-2-yl)-4-(2-methoxyphenyl)-6-methylpyridine-3-carboxamide]
5 | ≤ 200 nM | COc1cnc(Cl)cc1-c1cc(C)ncc1C(=O)Nc1nnc(OC[C@@H]2COC[C@H]2C)s1 (single isomer, unassigned) [Example 266]
6 | ≤ 200 nM | COc1cnc(Cl)cc1-c1cc(C)ncc1C(=O)Nc1nnc(OCC2CC2(F)F)s1 (stereo not shown) [Example 206, 2′-chloro-N-(5-((2,2-difluorocyclopropyl)methoxy)-1,3,4-thiadiazol-2-yl)-5′-methoxy-6-methyl-(4,4′-bipyridine)-3-carboxamide]
7 | ≤ 200 nM | COc1cccc(F)c1-c1cc(C)ncc1C(=O)Nc1nnc(OCc2ccc(OC(C)C)cn2)s1 [Example 75, 4-(2-fluoro-6-methoxyphenyl)-N-(5-((5-isopropoxypyridin-2-yl)methoxy)-1,3,4-thiadiazol-2-yl)-6-methylnicotinamide]
8 | ≤ 200 nM | COCc1cc(-c2cc(Cl)ncc2OC)c(C(=O)Nc2nnc(OC[C@@H]3COCCO3)s2)cn1 [Example 216, (S)—N-(5-((1,4-dioxan-2-yl)methoxy)-1,3,4-thiadiazol-2-yl)-2′-chloro-5′-methoxy-6-(methoxymethyl)-(4,4′-bipyridine)-3-carboxamide]
9 | ≤ 200 nM | Cc1cc(-c2cc(Cl)ncc2OC(F)F)c(C(=O)Nc2nnc(OC[C@@H]3COCCO3)s2)cn1 [Example 233, (S)—N-(5-((1,4-dioxan-2-yl)methoxy)-1,3,4-thiadiazol-2-yl)-2′-chloro-5′-(difluoromethoxy)-6-methyl-(4,4′-bipyridine)-3-carboxamide]
10 | ≤ 200 nM | COc1ccc(COc2nnc(NC(=O)c3cnc(C)cc3-c3c(F)cccc3OC)s2)nc1OC [Example 43, N-(5-((5,6-dimethoxypyridin-2-yl)methoxy)-1,3,4-thiadiazol-2-yl)-4-(2-fluoro-6-methoxyphenyl)-6-methylnicotinamide]
11 | ≤ 200 nM | COc1cnc(Cl)cc1-c1cc(C)ncc1C(=O)Nc1nnc(OCC2COC3(CCC3)C2)s1 (stereo not shown) [Example 224, N-(5-((5-oxaspiro(3.4)octan-7-yl)methoxy)-1,3,4-thiadiazol-2-yl)-2′-chloro-5′-methoxy-6-methyl-(4,4′-bipyridine)-3-carboxamide]
12 | ≤ 200 nM | COc1cnc(Cl)c(F)c1-c1cc(C)ncc1C(=O)Nc1nnc(OCC2CCOC2)s1 (stereo in doubt) [Example 184, 2′-chloro-3′-fluoro-5′-methoxy-6-methyl-N-(5-(((S)-tetrahydrofuran-3-yl)methoxy)-1,3,4-thiadiazol-2-yl)-(4,4′-bipyridine)-3-carboxamide]
13 | ≤ 200 nM | CN=[S@](C)(=O)c1ccc(COc2nnc(NC(=O)c3cnc(C)cc3-c3c(F)cccc3OC)s2)cc1 [Example 154, N-(5-((4-((R)—N,S-dimethylsulfonimidoyl)benzyl)oxy)-1,3,4-thiadiazol-2-yl)-4-(2-fluoro-6-methoxyphenyl)-6-methylnicotinamide]
14 | ≤ 200 nM | COc1cnc(Br)cc1-c1cc(C)ncc1C(=O)Nc1nnc(OC[C@H]2CC[C@H](O)CC2)s1 [Example 247, 2′-bromo-N-(5-(((1r,4r)-4-hydroxycyclohexyl)methoxy)-1,3,4-thiadiazol-2-yl)-5′-methoxy-6-methyl-(4,4′-bipyridine)-3-carboxamide]
15 | 200 to 500 nM | COCc1cccc(COc2nnc(NC(=O)c3cnc(C)cc3-c3ccccc3OC)s2)n1 [Example 26, N-(5-((6-(methoxymethyl)pyridin-2-yl)methoxy)-1,3,4-thiadiazol-2-yl)-4-(2-methoxyphenyl)-6-methylnicotinamide]
16 | ≤ 200 nM | COc1cnc(C)c(F)c1-c1cc(C)ncc1C(=O)Nc1nnc(OC[C@H]2CC[C@@](C)(O)CC2)s1 [Example 213, 3′-fluoro-N-(5-(((1s,4s)-4-hydroxy-4-methylcyclohexyl)methoxy)-1,3,4-thiadiazol-2-yl)-5′-methoxy-2′,6-dimethyl-(4,4′-bipyridine)-3-carboxamide]

Row | IC50 | SMILES
17 | ≤ 200 nM | Cc1cc(-c2ccccc2OC(F)F)c(C(=O)Nc2nnc(OCc3ccc(C(C)(C)O)cn3)s2)cn1 [Example 59, 4-(2-(difluoromethoxy)phenyl)-N-(5-((5-(2-hydroxypropan-2-yl)pyridin-2-yl)methoxy)-1,3,4-thiadiazol-2-yl)-6-methylnicotinamide]
18 | ≤ 200 nM | COc1cnc(Cl)cc1-c1cc(C)ncc1C(=O)Nc1nnc(OC[C@@H]2COC(C)(C)CO2)s1 (single isomer, unassigned) [Example 222]
19 | ≤ 200 nM | COc1cnc(C)cc1-c1cc(C)ncc1C(=O)Nc1nnc(OC[C@H]2CC[C@H](O)CC2)s1 [Example 100, N-(5-(((1r,4r)-4-hydroxycyclohexyl)methoxy)-1,3,4-thiadiazol-2-yl)-5′-methoxy-2′,6-dimethyl-[4,4′-bipyridine]-3-carboxamide]
20 | 1000 to 10000 nM | COc1cccc(F)c1-c1cc2nc[nH]c2cc1C(=O)Nc1nnc(OC[C@H]2CC[C@H](O)CC2)s1 [Example 199, 5-(2-fluoro-6-methoxyphenyl)-N-(5-(((1r,4r)-4-hydroxycyclohexyl)methoxy)-1,3,4-thiadiazol-2-yl)-1H-benzo(d)imidazole-6-carboxamide]
21 | ≤ 200 nM | COc1cnc(Cl)cc1-c1cc(C)ncc1C(=O)Nc1nnc(OC[C@@H]2COC[C@@H]2C)s1 (single isomer, unassigned) [Example 265]
22 | 200 to 500 nM | COc1cnc(Cl)cc1-c1cc(C)ncc1C(=O)Nc1nnc(OCC2CCN(C)C2)s1 (stereo not shown) [Example 176, 2′-chloro-5′-methoxy-6-methyl-N-(5-((1-methylpyrrolidin-3-yl)methoxy)-1,3,4-thiadiazol-2-yl)-(4,4′-bipyridine)-3-carboxamide]
23 | ≤ 200 nM | COc1cnc(C)c(F)c1-c1cc(C)ncc1C(=O)Nc1nnc(OC[C@H]2CCOC2)s1 [Example 249, 3′-fluoro-5′-methoxy-2′,6-dimethyl-N-(5-(((S)-tetrahydrofuran-3-yl)methoxy)-1,3,4-thiadiazol-2-yl)-(4,4′-bipyridine)-3-carboxamide]
24 | ≤ 200 nM | COc1cccc(F)c1-c1cc(C)ncc1C(=O)Nc1nnc(OCc2cc(CO)ccn2)s1 [Example 72, 4-(2-fluoro-6-methoxyphenyl)-N-(5-((4-(hydroxymethyl)pyridin-2-yl)methoxy)-1,3,4-thiadiazol-2-yl)-6-methylnicotinamide]
25 | ≤ 200 nM | COc1cnc(Cl)cc1-c1cc(C)ncc1C(=O)Nc1nnc(OCc2ccc(C(C)(C)C#N)cn2)s1 [Example 84, 2′-chloro-N-(5-((5-(2-cyanopropan-2-yl)pyridin-2-yl)methoxy)-1,3,4-thiadiazol-2-yl)-5′-methoxy-6-methyl-(4,4′-bipyridine)-3-carboxamide]
26 | ≤ 200 nM | COc1cccc(F)c1-c1cc(C)ncc1C(=O)Nc1nnc(OCC23CC(CO)(C2)C3)s1 [Example 132, 4-(2-fluoro-6-methoxyphenyl)-N-(5-((3-(hydroxymethyl)bicyclo(1.1.1)pentan-1-yl)methoxy)-1,3,4-thiadiazol-2-yl)-6-methylpyridine-3-carboxamide]
27 | ≤ 200 nM | COc1cnc(Cl)cc1-c1cc(C)ncc1C(=O)Nc1nnc(OC[C@H]2CC[C@H](OC)CC2)s1 [Example 137, 2′-chloro-5′-methoxy-N-(5-(((1r,4r)-4-methoxycyclohexyl)methoxy)-1,3,4-thiadiazol-2-yl)-6-methyl-[4,4′-bipyridine]-3-carboxamide]
28 | ≤ 200 nM | COc1cnc(Cl)c(F)c1-c1cc(C)ncc1C(=O)Nc1nnc(OCC23CC(O)(C2)C3)s1 [Example 185, 2′-chloro-3′-fluoro-N-(5-((3-hydroxybicyclo(1.1.1)pentan-1-yl)methoxy)-1,3,4-thiadiazol-2-yl)-5′-methoxy-6-methyl-(4,4′-bipyridine)-3-carboxamide]
29 | ≤ 200 nM | COc1ccccc1-c1cnccc1C(=O)Nc1nnc(OCC2CCCc3[nH]ncc32)s1 (stereo not shown) [compound 3, 3-(2-methoxyphenyl)-N-(5-(4,5,6,7-tetrahydro-1H-indazol-4-ylmethoxy)-1,3,4-thiadiazol-2-yl)pyridine-4-carboxamide]
30 | ≤ 200 nM | COc1cnc(C)cc1-c1cc(C)ncc1C(=O)Nc1nnc(OCC2(F)CC2)s1 [Example 203, N-(5-((1-fluorocyclopropyl)methoxy)-1,3,4-thiadiazol-2-yl)-5′-methoxy-2′,6-dimethyl-(4,4′-bipyridine)-3-carboxamide]
31 | ≤ 200 nM | COc1cccc(F)c1-c1cc(C)ncc1C(=O)Nc1nnc(OCC23CCC(F)(CC2)CC3)s1 [Example 65, 4-(2-fluoro-6-methoxyphenyl)-N-(5-((4-fluorobicyclo(2.2.2)octan-1-yl)methoxy)-1,3,4-thiadiazol-2-yl)-6-methylnicotinamide]

From patent US20250325552A1, “SUBSTITUTED THIADIAZOLYL DERIVATIVES AS DNA POLYMERASE THETA INHIBITORS” (IDEAYA Biosciences, Inc., priority 2020, published 2025)
